In patent publication US10738013B2, “Eluxadoline crystalline forms and processes for their preparation” (priority 2017, dated 2020):

How the values were obtained:
Dissolution test = format: physicochemical; conditions: 50 mM phosphate buffer pH=7.4, 37° C., 110 rpm
Experimental: Dissolution tests were performed by means of Sotax AT7 Smart equipped with 6×800 mL volume vessels and using a 50 mM phosphate buffer pH=7.4, previously heated to 37° C. 20 mg of the sample to be tested were placed in each vessel, and stirred (with paddles) at 110 rpm for 60 minutes at 37±0.2° C. Aliquots were taken at 5, 10, 20, 30, 45 and 60 min, filtered through 0.45 μm Chromafil Xtra RC 45/25 syringe filter and analysed by UV/VIS spectrometer Perkin Elmer Lambda 35, 1 cm quartz cell (absorbance at 203 nm). pH was determined using a Mettler Toledo pH Meter FE20 equipped with a InLab®420 electrode.
A portion of the product was subjected to a dissolution test in 50 mM phosphate buffer at pH=7.4 giving the results summarised below: […]

[1] = Thermal (polymorphic) stability at 120° C. by XRPD; format: physicochemical; conditions: maintained at 120° C. for 24 or 48 hours, cooled to room temperature
Experimental: By “polymorphically stable” it is meant that the crystalline Form α′ of the present invention when stored under stressed conditions i.e., up to a temperature of 120° C. for 24 or 48 hours, show no signs of crystallinity associated to other polymorphs of eluxadoline (e.g. Form β) as judged by the absence of their relevant peaks in an X-ray powder diffractogram (XRPD).
Analyses were performed on a Bruker AXS D8 Advance diffractometer (40 kV, 40 mA, λ=1.5418 Å), equipped with a linear Lynxeye position sensitive detector, set at 300 mm from the sample (Ni-filtered Cu-Kα1,2 radiation). Data collection was made in coupled mode and in theta-theta configuration, in the 3-30° 2-theta, sampling with a 0.02° step scan. Samples were gently ground in an agate mortar, and then deposited in the 0.2 mm-deep hollow of a silicon monocrystal zero background plate.
The polymorphically and chemically stable form α′ of eluxadoline, prepared as described in Examples 10 to 12, were maintained at 120° C. for 24 or 48 hours.

## COc1ccc(CN(C(=O)[C@@H](N)Cc2c(C)cc(C(N)=O)cc2C)[C@@H](C)c2nc(-c3ccccc3)c[nH]2)cc1C(=O)O [form α′, 5-({[(2S)-2-amino-3-(4-carbamoyl-2,6-dimethylphenyl)propanoyl][(1S)-1-(4-phenyl-1H-imidazol-2-yl)ethyl]amino}methyl)-2-methoxybenzoic acid]
Dissolution test; 5 min
  % dissolved: 6.06%
Dissolution test; 10 min
  % dissolved: 13.93%
Dissolution test; 20 min
  % dissolved: 17.81%
Dissolution test; 30 min
  % dissolved: 27.87%
Dissolution test; 45 min
  % dissolved: 38.40%
Dissolution test; 60 min
  % dissolved: 60.17%
[1]
  XRPD after thermal stress (polymorphic stability): XRPD spectrum corresponding to the one obtained in example 10
